Results as given in ChEMBL document CHEMBL5543120, “Discovery of Novel 5,6-Dihydro-4H-pyrido[2,3,4-de]quinazoline Irreversible Inhibitors Targeting Both Wild-Type and A775_G776insYVMA Mutated HER2 Kinases” (J Med Chem, 2024).

Assays:
in vivo [1] = conditions: rat, po, 10 mg/kg
in vivo [2] = conditions: rat, po, 10 mg/kg; remark: listed apart in the source
in vivo [3] = conditions: rat, iv, 3 mg/kg
in vivo [4] = conditions: rat, po, 10 mg/kg; remark: listed apart in the source
in vivo [5] = conditions: rat, iv, 3 mg/kg; remark: listed apart in the source
in vivo [6] = conditions: rat, po, 10 mg/kg; remark: listed apart in the source
in vivo [7] = conditions: rat, iv, 3 mg/kg; remark: listed apart in the source
in vivo [8] = conditions: rat, iv, 3 mg/kg; remark: listed apart in the source
in vivo [9] = conditions: rat, po, 10 mg/kg; remark: listed apart in the source

Row | Compound | Tmax (in vivo [1]) | AUC(0-t) (in vivo [2]) | AUC(0-t) (in vivo [3]) | bioavailability (in vivo [4]) | half-life (in vivo [5]) | Cmax (in vivo [6]) | Vd (in vivo [7]) | clearance (in vivo [8]) | half-life (in vivo [9])
1 | CN1CCC[C@@H]1/C=C/C(=O)Nc1ccc2ncnc3c2c1CCN3c1ccc(OCc2ccccn2)c(Cl)c1 | 0.5 h | 157 ng·h/mL | 667 ng·h/mL | 7.43% | 293 min | 23.8 ng/mL | 17.8 L/kg | 74.6 mL/min/kg | 388 min
2 | CN(C)C/C=C/C(=O)Nc1ccc2ncnc(Nc3ccc(OCc4ccccn4)c(Cl)c3)c2c1-c1ccccc1 | 3.67 h | 1300 ng·h/mL | 1290 ng·h/mL | 30.4% | 229 min | 124 ng/mL | 8.1 L/kg | 38.4 mL/min/kg | 246 min
3 | CCOc1cc2ncc(C#N)c(Nc3ccc(OCc4ccccn4)c(Cl)c3)c2cc1NC(=O)/C=C/CN(C)C [NERATINIB] |  |  |  | 18.2% |  |  | 5.01 L/kg | 20.8 mL/min/kg | 
